From patent US12281122B1, “PI3K inhibitors” (Cogent Biosciences, Inc., priority 2023, dated 2025) come the findings set out here.

A word on the IC50: it is the point on the concentration scale where inhibition reaches its midpoint.

Experiment [1] relates to T47D (PI3Kα-H1047R) cell line. As to the kind of experiment: HTRF phospho-AKT(S473) cell assay in T47D cells. The format is cell-based, human. In a few lines: (§1)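 pAKT(S473) in lysates read by HTRF after a 2 h, 37 °C compound exposure (12-point 1:3 series, max 0.5% DMSO). SKBR3 (wild type, top 10 μM) received 70 ng/ml PDGF-BB during the final 15 min; T47D (H1047R, top 5 μM) was unstimulated. IC50 values derived from the dose-response.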

Experiment [2] has as its system SKBR3 (PI3Kα-Wild Type) cell line. As to the kind of experiment: HTRF phospho-AKT(S473) cell assay in SKBR3 cells. The format is cell-based, human. In a few lines: as §1
Background: In TR-FRET formats the signal depends on donor and acceptor labels being close together.

Where [3] appears, read: Homo sapiens; HTRF phospho-AKT(S473), T47D (PI3Kα-H1047R) cells, 2 hours compound incubation.
Where [4] appears, read: Homo sapiens, SK-BR-3; HTRF phospho-AKT(S473), SKBR3 (PI3Kα-Wild Type) cells, 2 hours compound incubation, PDGF-BB stimulated.
The mark [5] stands for this setting: Homo sapiens; T47D (PI3Kα-H1047R) cells, HTRF phospho-AKT(S473), 2 hours compound incubation.
Setting [6] is: Homo sapiens, SK-BR-3; SKBR3 (PI3Kα-Wild Type) cells, HTRF phospho-AKT(S473), 2 hours compound incubation, PDGF-BB stimulated.

A value given as a limit tells only on which side of the number the result lay.

For `Cc1cc([C@@H](C)Nc2ccc(Cl)nc2C(=O)NS(C)(=O)=O)c2nc(N3C[C@@H]4C[C@H]3CN4c3cnc(C)nc3)n(C)c(=O)c2c1` [Compound 576, 6-chloro-3-(((R)-1-(3,6-dimethyl-2-((1S,4S)-5-(2-methylpyrimidin-5-yl)-2,5-diazabicyclo[2.2.1]heptan-2-yl)-4-oxo-3,4-dihydroquinazolin-8-yl)ethyl)amino)-N-(methylsulfonyl) picolinamide], the IC50 in experiment [1] (setting [3]) was 500 to 1000 nM; in experiment [2] (setting [4]), at least 5000 nM.

As to `Cc1cc([C@@H](C)Nc2ccc(Cl)nc2C(=O)NS(C)(=O)=O)c2nc(N3CCC(n4ncc5cc(C#N)ccc54)CC3)n(C)c(=O)c2c1` [Compound 255, (R)-6-chloro-3-((1-(2-(4-(5-cyano-1H-indazol-1-yl)piperidin-1-yl)-3,6-dimethyl-4-oxo-3,4-dihydroquinazolin-8-yl)ethyl)amino)-N-(methylsulfonyl) picolinamide], the IC50 in experiment [1] (setting [5]) was under 250 nM; in experiment [2] (setting [6]), 1000 to 5000 nM.

Regarding `Cc1cc([C@@H](C)Nc2ccc(Cl)nc2C(=O)NS(C)(=O)=O)c2nc(-c3cnn(-c4ccccc4)c3)n(C)c(=O)c2c1` [Compound 171, (R)-6-chloro-3-((1-(3,6-dimethyl-4-oxo-2-(1-phenyl-1H-pyrazol-4-yl)-3,4-dihydroquinazolin-8-yl)ethyl)amino)-N-(methylsulfonyl) picolinamide], the IC50 was under 250 nM in experiment [1] (setting [5]) and 1000 to 5000 nM in experiment [2] (setting [6]).

Take `Cc1cc([C@@H](C)Nc2ccc(Cl)nc2C(=O)NS(C)(=O)=O)c2nc(N3CCC[C@@H](Oc4cnccn4)C3)n(C)c(=O)c2c1` [Compound 375, 6-chloro-3-(((R)-1-(3,6-dimethyl-4-oxo-2-((R)-3-(pyrazin-2-yloxy)piperidin-1-yl)-3,4-dihydroquinazolin-8-yl)ethyl)amino)-N-(methylsulfonyl) picolinamide]: the results for the IC50 in experiment [1] (setting [5]) and in experiment [2] (setting [6]) were 250 to 500 nM and at least 5000 nM, respectively.

In the case of `Cc1cc([C@@H](C)Nc2ccc(Cl)nc2C(=O)NS(C)(=O)=O)c2nc(N3C[C@@H]4C[C@H]3CN4c3ncc(F)cn3)n(C)c(=O)c2c1` [Compound 669, 6-chloro-3-(((R)-1-(2-((1S,4S)-5-(5-fluoropyrimidin-2-yl)-2,5-diazabicyclo [2.2.1]heptan-2-yl)-3,6-dimethyl-4-oxo-3,4-dihydroquinazolin-8-yl)ethyl)amino)-N-(methylsulfonyl) picolinamide], the IC50 is 250 to 500 nM in experiment [1] (setting [3]) and at least 5000 nM in experiment [2] (setting [4]).

As to `Cc1cnc(N2C[C@H]3C[C@@H]2CN3c2nc3c([C@@H](C)Nc4ccc(Cl)nc4C(=O)NS(C)(=O)=O)cc(C)cc3c(=O)n2C)nc1` [Compound 565, 6-chloro-3-(((R)-1-(3,6-dimethyl-2-((1R,4R)-5-(5-methylpyrimidin-2-yl)-2,5-diazabicyclo[2.2.1]heptan-2-yl)-4-oxo-3,4-dihydroquinazolin-8-yl)ethyl)amino)-N-(methylsulfonyl) picolinamide], the IC50 in experiment [1] (setting [3]) is 250 to 500 nM; in experiment [2] (setting [4]), at least 5000 nM.

In the case of `Cc1cc([C@@H](C)Nc2ccc(Cl)nc2C(=O)NS(C)(=O)=O)c2nc(N3CCC(n4ncnc4C)CC3)n(C)c(=O)c2c1` [Compound 549, (R)-6-chloro-3-((1-(3,6-dimethyl-2-(4-(5-methyl-1H-1,2,4-triazol-1-yl)piperidin-1-yl)-4-oxo-3,4-dihydroquinazolin-8-yl)ethyl)amino)-N-(methylsulfonyl) picolinamide], the concentration for half-maximal inhibition (IC50) is under 250 nM in experiment [1] (setting [3]) and 1000 to 5000 nM in experiment [2] (setting [4]).

`Cc1cc([C@@H](C)Nc2ccc(Cl)nc2C(=O)NS(C)(=O)=O)c2nc(N3C[C@@H]4[C@H](C3)[C@H]4c3ccnc(C)c3F)n(C)c(=O)c2c1` [Compound 548, 6-chloro-3-(((R)-1-(2-((1R,5S,6S)-6-(3-fluoro-2-methylpyridin-4-yl)-3-azabicyclo[3.1.0]hexan-3-yl)-3,6-dimethyl-4-oxo-3,4-dihydroquinazolin-8-yl)ethyl)amino)-N-(methylsulfonyl) picolinamide]: the IC50 in experiment [1] (setting [3]) was in the range of 250 to 500 nM; in experiment [2] (setting [4]) it was 1000 to 5000 nM.

On to `Cc1cc([C@@H](C)Nc2ccc(Cl)nc2C(=O)NS(C)(=O)=O)c2nc(-c3ccn(-c4ccn(C)n4)c(=O)c3)n(C)c(=O)c2c1` [Compound 807, (R)-6-chloro-3-((1-(3,6-dimethyl-2-(1-(1-methyl-1H-pyrazol-3-yl)-2-oxo-1,2-dihydropyridin-4-yl)-4-oxo-3,4-dihydroquinazolin-8-yl)ethyl)amino)-N-(methylsulfonyl) picolinamide], for which the half-inhibitory concentration (IC50) in experiment [1] (setting [3]) is 250 to 500 nM; in experiment [2] (setting [4]), at least 5000 nM.

`Cc1cc([C@@H](C)Nc2ccc(Cl)nc2C(=O)NS(C)(=O)=O)c2nc(N3CCC(c4ncc(F)cn4)CC3)n(C)c(=O)c2c1` [Compound 486, (R)-6-chloro-3-((1-(2-(4-(5-fluoropyrimidin-2-yl)piperidin-1-yl)-3,6-dimethyl-4-oxo-3,4-dihydroquinazolin-8-yl)ethyl)amino)-N-(methylsulfonyl) picolinamide]: the IC50 was under 250 nM in experiment [1] (setting [3]) and 1000 to 5000 nM in experiment [2] (setting [4]).

For `Cc1cc([C@@H](C)Nc2ccc(Cl)nc2C(=O)NS(C)(=O)=O)c2nc(N3CCC(c4cnn(C)c4)CC3)n(C)c(=O)c2c1` [Compound 181, (R)-6-chloro-3-((1-(3,6-dimethyl-2-(4-(1-methyl-1H-pyrazol-4-yl)piperidin-1-yl)-4-oxo-3,4-dihydroquinazolin-8-yl)ethyl)amino)-N-(methylsulfonyl) picolinamide], the IC50 in experiment [1] (setting [5]) is under 250 nM; in experiment [2] (setting [6]), 1000 to 5000 nM.

`Cc1cc([C@@H](C)Nc2ccc(Cl)nc2C(=O)NS(C)(=O)=O)c2nc(N3CCC[C@H](c4conc4C)C3)n(C)c(=O)c2c1` (relative stereo) [Compound 306, 6-chloro-3-(((R)-1-(3,6-dimethyl-2-((R*)-3-(3-methylisoxazol-4-yl)piperidin-1-yl)-4-oxo-3,4-dihydroquinazolin-8-yl)ethyl)amino)-N-(methylsulfonyl) picolinamide]: the figures for the IC50 in experiment [1] (setting [5]) and in experiment [2] (setting [6]) were under 250 nM and 1000 to 5000 nM, respectively.

As for `Cc1cc([C@@H](C)Nc2ccc(Cl)nc2C(=O)NS(C)(=O)=O)c2nc(N3C[C@H]4C[C@@H]3CN4c3ncc(Cl)cn3)n(C)c(=O)c2c1` [Compound 666, 6-chloro-3-(((R)-1-(2-((1R,4R)-5-(5-chloropyrimidin-2-yl)-2,5-diazabicyclo [2.2.1]heptan-2-yl)-3,6-dimethyl-4-oxo-3,4-dihydroquinazolin-8-yl)ethyl)amino)-N-(methylsulfonyl) picolinamide], the results for the half-inhibitory concentration (IC50) in experiment [1] (setting [3]) and in experiment [2] (setting [4]) were 250 to 500 nM and at least 5000 nM, respectively.

In the case of `Cc1cc([C@@H](C)Nc2ccc(Cl)nc2C(=O)NS(C)(=O)=O)c2nc(N3C[C@@H]4[C@H](C3)[C@H]4c3cc(C)n(C)n3)n(C)c(=O)c2c1` [Compound 435, 6-chloro-3-(((R)-1-(2-((1R,5S,6R)-6-(1,5-dimethyl-1H-pyrazol-3-yl)-3-azabicyclo[3.1.0]hexan-3-yl)-3,6-dimethyl-4-oxo-3,4-dihydroquinazolin-8-yl)ethyl)amino)-N-(methylsulfonyl) picolinamide], the concentration for half-maximal inhibition (IC50) in experiment [1] (setting [5]) is under 250 nM; in experiment [2] (setting [6]), 1000 to 5000 nM.

In the case of `Cc1cc([C@@H](C)Nc2ccc(Cl)nc2C(=O)NS(C)(=O)=O)c2nc(C3CCN(c4ccc(C#N)nc4)CC3)n(C)c(=O)c2c1` [Compound 180, (R)-6-chloro-3-((1-(2-(1-(6-cyanopyridin-3-yl)piperidin-4-yl)-3,6-dimethyl-4-oxo-3,4-dihydroquinazolin-8-yl)ethyl)amino)-N-(methylsulfonyl) picolinamide], the IC50 was under 250 nM in experiment [1] (setting [5]) and 1000 to 5000 nM in experiment [2] (setting [6]).

`Cc1cc([C@@H](C)Nc2ccc(Cl)nc2C(=O)NS(C)(=O)=O)c2nc(N3C[C@@H]4[C@H](C3)[C@H]4c3ccnc(N(C)C)c3)n(C)c(=O)c2c1` [Compound 745, 6-chloro-3-(((R)-1-(2-((1R,5S,6S)-6-(2-(dimethylamino)pyridin-4-yl)-3-azabicyclo[3.1.0]hexan-3-yl)-3,6-dimethyl-4-oxo-3,4-dihydroquinazolin-8-yl)ethyl)amino)-N-(methylsulfonyl) picolinamide]: the IC50 in experiment [1] (setting [3]) was 250 to 500 nM; in experiment [2] (setting [4]), at least 5000 nM.

On to `Cc1cc([C@@H](C)Nc2ccc(Cl)nc2C(=O)NS(C)(=O)=O)c2nc(-c3ccc4cn(C)nc4c3)n(C)c(=O)c2c1` [Compound 835, (R)-6-chloro-3-((1-(3,6-dimethyl-2-(2-methyl-2H-indazol-6-yl)-4-oxo-3,4-dihydroquinazolin-8-yl)ethyl)amino)-N-(methylsulfonyl) picolinamide], for which the results for the IC50 in experiment [1] (setting [3]) and in experiment [2] (setting [4]) were 250 to 500 nM and 1000 to 5000 nM, respectively.

On to `Cc1cc([C@@H](C)Nc2ccc(Cl)nc2C(=O)NS(C)(=O)=O)c2nc(N3CCC(c4nnc(C)s4)CC3)n(C)c(=O)c2c1` [Compound 558, (R)-6-chloro-3-((1-(3,6-dimethyl-2-(4-(5-methyl-1,3,4-thiadiazol-2-yl)piperidin-1-yl)-4-oxo-3,4-dihydroquinazolin-8-yl)ethyl)amino)-N-(methylsulfonyl) picolinamide], for which the IC50 was under 250 nM in experiment [1] (setting [3]) and 1000 to 5000 nM in experiment [2] (setting [4]).

On to `Cc1cc([C@@H](C)Nc2ccc(Cl)nc2C(=O)NS(C)(=O)=O)c2nc(N3C[C@H]4CC4(c4cnc(C)cn4)C3)n(C)c(=O)c2c1` (relative stereo) [Compound 749, 6-chloro-3-(((R)-1-(3,6-dimethyl-2-((1R*,5S*)-1-(5-methylpyrazin-2-yl)-3-azabicyclo[3.1.0]hexan-3-yl)-4-oxo-3,4-dihydroquinazolin-8-yl)ethyl)amino)-N-(methylsulfonyl) picolinamide], for which the results for the IC50 in experiment [1] (setting [3]) and in experiment [2] (setting [4]) were 250 to 500 nM and at least 5000 nM, respectively.
